Test results taken from ChEMBL document CHEMBL1201862, “PubChem BioAssay data set” (2004).
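Values below derive from 48-hour exposures of cells grown in 96-well plates, with endpoints linearly interpolated between the two concentrations bracketing the appropriate inhibition level. GI50 marks 50% less growth.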 The source made the active and inactive calls. Rule as the data show it: active = GI50 up to about 1.1 µM and inactive = higher.

Tests used:
Assay in all cases: NCI-60 cell line screen, 48 h
IGROV-1 = tested on: IGROV-1
KM12 = tested on: KM12
NCI-H226 = tested on: NCI-H226
SN12C = tested on: SN12C
HCC 2998 = tested on: HCC 2998
NCI-H23 = tested on: NCI-H23
T47D = tested on: T47D
SF-539 = tested on: SF-539
OVCAR-3 = tested on: OVCAR-3
SNB-75 = tested on: SNB-75
786-0 = tested on: 786-0
MOLT-4 = tested on: MOLT-4
NCI/ADR-RES = tested on: NCI/ADR-RES
NCI-H460 = tested on: NCI-H460
A498 = tested on: A498
ACHN = tested on: ACHN
MCF7 = tested on: MCF7
HT-29 = tested on: HT-29
EKVX = tested on: EKVX
OVCAR-8 = tested on: OVCAR-8
NCI-H522 = tested on: NCI-H522
SF-295 = tested on: SF-295
UO-31 = tested on: UO-31
A549 = tested on: A549
HOP-62 = tested on: HOP-62
PC-3 = tested on: PC-3
SNB-19 = tested on: SNB-19
COLO 205 = tested on: COLO 205
U-251 = tested on: U-251
SK-MEL-2 = tested on: SK-MEL-2
MDA-MB-231 = tested on: MDA-MB-231
BT-549 = tested on: BT-549
OVCAR-4 = tested on: OVCAR-4
UACC-257 = tested on: UACC-257
SR = tested on: SR
Hs-578T = tested on: Hs-578T
SF-268 = tested on: SF-268
OVCAR-5 = tested on: OVCAR-5
CCRF-CEM = tested on: CCRF-CEM
SK-OV-3 = tested on: SK-OV-3
TK-10 = tested on: TK-10
K562 = tested on: K562
RXF 393 = tested on: RXF 393
CAKI-1 = tested on: CAKI-1
M14 = tested on: M14
Malme-3M = tested on: Malme-3M
UACC-62 = tested on: UACC-62
SK-MEL-5 = tested on: SK-MEL-5
HCT-15 = tested on: HCT-15
DU-145 = tested on: DU-145
MDA-MB-435 = tested on: MDA-MB-435
HCT-116 = tested on: HCT-116
SK-MEL-28 = tested on: SK-MEL-28
HOP-92 = tested on: HOP-92
HL-60 = tested on: HL-60
LOX IMVI = tested on: LOX IMVI
SW-620 = tested on: SW-620
MDA-N = tested on: MDA-N
RPMI-8226 = tested on: RPMI-8226

For O=C1Oc2ccccc2N/C1=C/C(=O)c1ccc([N+](=O)[O-])cc1, the GI50 (IGROV-1) was > 100 µM (inactive), the GI50 (KM12) was > 100 µM (inactive) and the GI50 (NCI-H226) was > 100 µM (inactive). The GI50 (SN12C) was > 100 µM (inactive), the GI50 (HCC 2998) was > 100 µM (inactive) and the GI50 (NCI-H23) was > 100 µM (inactive). For the same compound, the GI50 (T47D) was > 100 µM (inactive), the GI50 (SF-539) was > 100 µM (inactive) and the GI50 (OVCAR-3) was > 100 µM (inactive). The GI50 (SNB-75) was > 100 µM (inactive), the GI50 (786-0) was > 100 µM (inactive) and the GI50 (MOLT-4) was > 100 µM (inactive). The GI50 (NCI/ADR-RES) was > 100 µM (inactive), the GI50 (NCI-H460) was > 100 µM (inactive) and the GI50 (A498) was > 100 µM (inactive). For the same compound, the GI50 (ACHN) was > 100 µM (inactive), the GI50 (MCF7) was > 100 µM (inactive) and the GI50 (HT-29) was > 100 µM (inactive). For the same compound, the GI50 (EKVX) was > 100 µM (inactive), the GI50 (OVCAR-8) was > 100 µM (inactive) and the GI50 (NCI-H522) was 23 µM (inactive). The GI50 (SF-295) was > 100 µM (inactive), the GI50 (UO-31) was > 100 µM (inactive) and the GI50 (A549) was > 100 µM (inactive). The GI50 (HOP-62) was > 100 µM (inactive), the GI50 (PC-3) was 80.7 µM (inactive) and the GI50 (SNB-19) was > 100 µM (inactive). The GI50 (COLO 205) was > 100 µM (inactive), the GI50 (U-251) was > 100 µM (inactive) and the GI50 (SK-MEL-2) was > 100 µM (inactive). For the same compound, the GI50 (MDA-MB-231) was > 100 µM (inactive), the GI50 (BT-549) was 98.2 µM (inactive) and the GI50 (OVCAR-4) was > 100 µM (inactive). For the same compound, the GI50 (UACC-257) was > 100 µM (inactive), the GI50 (SR) was > 100 µM (inactive) and the GI50 (Hs-578T) was 23.2 µM (inactive). For the same compound, the GI50 (SF-268) was > 100 µM (inactive), the GI50 (OVCAR-5) was > 100 µM (inactive) and the GI50 (CCRF-CEM) was 61 µM (inactive). For the same compound, the GI50 (SK-OV-3) was > 100 µM (inactive), the GI50 (TK-10) was > 100 µM (inactive) and the GI50 (K562) was > 100 µM (inactive). For the same compound, the GI50 (RXF 393) was > 100 µM (inactive), the GI50 (CAKI-1) was > 100 µM (inactive) and the GI50 (M14) was > 100 µM (inactive). The GI50 (Malme-3M) was > 100 µM (inactive), the GI50 (UACC-62) was 45.8 µM (inactive) and the GI50 (SK-MEL-5) was > 100 µM (inactive). The GI50 (HCT-15) was over 100 µM, the GI50 (DU-145) was > 100 µM (inactive) and the GI50 (MDA-MB-435) was > 100 µM (inactive). For the same compound, the GI50 (HCT-116) was > 100 µM (inactive).
In the case of OCC1OC(n2nc(-c3ccccc3)nc2-c2cnccn2)C(O)C(O)C1O (configuration not stated), the GI50 (IGROV-1) is reported as > 100 µM (inactive), the GI50 (KM12) is reported as > 100 µM (inactive) and the GI50 (SN12C) is reported as > 100 µM (inactive). For the same compound, the GI50 (SK-MEL-28) was > 100 µM (inactive), the GI50 (HCC 2998) was > 100 µM (inactive) and the GI50 (NCI-H23) was > 100 µM (inactive). For the same compound, the GI50 (T47D) was > 100 µM (inactive), the GI50 (SF-539) was > 100 µM (inactive) and the GI50 (OVCAR-3) was > 100 µM (inactive). For the same compound, the GI50 (SNB-75) was > 100 µM (inactive), the GI50 (786-0) was > 100 µM (inactive) and the GI50 (HOP-92) was > 100 µM (inactive). The GI50 (MOLT-4) was > 100 µM (inactive), the GI50 (NCI/ADR-RES) was > 100 µM (inactive) and the GI50 (NCI-H460) was > 100 µM (inactive). For the same compound, the GI50 (MCF7) was > 100 µM (inactive), the GI50 (HT-29) was > 100 µM (inactive) and the GI50 (OVCAR-8) was > 100 µM (inactive). The GI50 (NCI-H522) was > 100 µM (inactive), the GI50 (SF-295) was > 100 µM (inactive) and the GI50 (UO-31) was > 100 µM (inactive). For the same compound, the GI50 (A549) was > 100 µM (inactive), the GI50 (HOP-62) was > 100 µM (inactive) and the GI50 (PC-3) was > 100 µM (inactive). For the same compound, the GI50 (HL-60) was > 100 µM (inactive), the GI50 (SNB-19) was > 100 µM (inactive) and the GI50 (COLO 205) was > 100 µM (inactive). The GI50 (U-251) was > 100 µM (inactive), the GI50 (MDA-MB-231) was > 100 µM (inactive) and the GI50 (BT-549) was > 100 µM (inactive). For the same compound, the GI50 (OVCAR-4) was > 100 µM (inactive), the GI50 (UACC-257) was > 100 µM (inactive) and the GI50 (LOX IMVI) was > 100 µM (inactive). The GI50 (OVCAR-5) was > 100 µM (inactive), the GI50 (CCRF-CEM) was > 100 µM (inactive) and the GI50 (SK-OV-3) was > 100 µM (inactive). The GI50 (K562) was > 100 µM (inactive), the GI50 (SW-620) was > 100 µM (inactive) and the GI50 (M14) was > 100 µM (inactive). The GI50 (UACC-62) was > 100 µM (inactive), the GI50 (SK-MEL-5) was > 100 µM (inactive) and the GI50 (HCT-15) was over 100 µM. The GI50 (MDA-N) was > 100 µM (inactive), the GI50 (DU-145) was > 100 µM (inactive) and the GI50 (MDA-MB-435) was > 100 µM (inactive). The GI50 (RPMI-8226) was > 100 µM (inactive) and the GI50 (HCT-116) was > 100 µM (inactive).
For CCOc1ccc2nc(-c3ccc(O)cc3)sc2c1, the GI50 (IGROV-1) was > 100 µM (inactive), the GI50 (KM12) was 35 µM (inactive) and the GI50 (NCI-H226) was > 100 µM (inactive). For the same compound, the GI50 (SN12C) was > 100 µM (inactive), the GI50 (NCI-H23) was 23.5 µM (inactive) and the GI50 (SF-539) was 45 µM (inactive). For the same compound, the GI50 (OVCAR-3) was 46.9 µM (inactive), the GI50 (MOLT-4) was > 100 µM (inactive) and the GI50 (NCI/ADR-RES) was > 100 µM (inactive). The GI50 (NCI-H460) was 77.1 µM (inactive), the GI50 (A498) was 30.4 µM (inactive) and the GI50 (ACHN) was 61.2 µM (inactive). For the same compound, the GI50 (MCF7) was > 100 µM (inactive), the GI50 (HT-29) was 46.6 µM (inactive) and the GI50 (EKVX) was 10.3 µM (inactive). For the same compound, the GI50 (OVCAR-8) was 48.6 µM (inactive), the GI50 (NCI-H522) was 4.82 µM (inactive) and the GI50 (SF-295) was 20.1 µM (inactive). The GI50 (UO-31) was 17.2 µM (inactive), the GI50 (A549) was > 100 µM (inactive) and the GI50 (PC-3) was 58.7 µM (inactive). For the same compound, the GI50 (HL-60) was 2 µM (inactive), the GI50 (SNB-19) was 23.9 µM (inactive) and the GI50 (COLO 205) was > 100 µM (inactive). The GI50 (U-251) was 43.9 µM (inactive), the GI50 (SK-MEL-2) was 71 µM (inactive) and the GI50 (MDA-MB-231) was > 100 µM (inactive). The GI50 (BT-549) was 31.1 µM (inactive), the GI50 (UACC-257) was 0.166 µM (active) and the GI50 (LOX IMVI) was > 100 µM (inactive). For the same compound, the GI50 (SF-268) was 19.6 µM (inactive), the GI50 (OVCAR-5) was > 100 µM (inactive) and the GI50 (SK-OV-3) was 24.2 µM (inactive). For the same compound, the GI50 (TK-10) was 73.1 µM (inactive), the GI50 (K562) was > 100 µM (inactive) and the GI50 (RXF 393) was 37 µM (inactive). The GI50 (SW-620) was > 100 µM (inactive), the GI50 (CAKI-1) was 36.7 µM (inactive) and the GI50 (M14) was > 100 µM (inactive). For the same compound, the GI50 (Malme-3M) was > 100 µM (inactive), the GI50 (UACC-62) was 56.9 µM (inactive) and the GI50 (SK-MEL-5) was 89.5 µM (inactive). For the same compound, the GI50 (HCT-15) was 97.3 µM, the GI50 (MDA-N) was > 100 µM (inactive) and the GI50 (DU-145) was > 100 µM (inactive). For the same compound, the GI50 (MDA-MB-435) was > 100 µM (inactive), the GI50 (RPMI-8226) was 0.106 µM (active) and the GI50 (HCT-116) was 69.3 µM (inactive).
